Molecules are shown by their SMILES.

Data set [1] has as its system A549 cells. Kind of data set: Cell viability assay (CellTiter-Blue). Type of data set: cell-based, human. As to conditions: up to 5 μM, 72 h incubation. How it is done: 5 × 10^3 A549 cells were seeded into 96-well plates. The following day, the indicated final concentrations of JYQ-164 and JYQ-173 were added to the cells, and DMSO was used as a control. Inhibitors were renewed at 36 h, and cells were incubated with them an additional 36 h. Cell viability was measured using the CellTiter-Blue viability assay (Promega). Relative survival was normalized to the DMSO-treated sample and corrected for background signal. page 8: Figure S6. Cytotoxicity assay for JYQ-164 and JYQ-173 in A549 cells. ( A) PARK7 engagement of JYQ -164 and JYQ-173 in A459 cells. A549 cells were incubated with […] The reactions were stopped by addition of NuPAGE™ LDS sample buffer (4x) , followed by cell lysis, SDS-PAGE, fluorescence scanning, and immunoblott in g against PARK7 and β-actin. β-actin was used as a loading control. (B) A549 cells were incubated with indicated concentration of JYQ-164 (left panel) or JYQ-173 (right panel) for 72 h where the inhibitors were renewed after 36 h. Cell viability was measured using the CellTiter-Blue assay. Relative viability was normalized to untreated control and corrected for background signal. S8 (1 picture or pasted object on this page, not shown here)

For data set [2], the system named is other proteins of A549 cells. Nature of the data set: TMT-based global proteomic profiling in A549 cells, other proteins. Type of data set: cell-based, Homo sapiens. As to conditions: A549 cells, 5 μM, 8 h. How it is done: A549 cells were seeded into 10 cm plates in 10 mL of media. […] Cells were lysed using a 5% SDS lysis buffer (100 mM Tris-HCl, pH 7.6) and were incubated at 95 °C for 4 min. Protein determination was performed using the Pierce BCA Gold protein assay. 100 μg of protein of each sample was reduced and alkylated, and excess iodoacetamide was quenched using 5 mM TCEP, 15 mM iodoacetamide, and 10 mM DTT, respectively. The protein was pelleted down using chloroform/methanol precipitation, and the resulting pellets were resolubilized in 40 mM HEPES pH 8.4. […] The Pierce BCA Gold protein assay was used to determine the peptide concentration. The peptides were labeled with TMTpro Label Reagents in a 1:4 ratio by mass (peptides/TMT reagents) for 1 h at RT. Five μL of 6% hydroxylamine was added to quench excess TMT reagent and incubated for 15 min at RT. Samples were pooled and lyophilized. The sample was subsequently fractionated on an Agilent 1200 series HPLC system (Agilent Technologies). 75 μg of the pooled sample was dissolved in solvent A (10 mM NH4HCO3, pH 8.4), injected onto, and eluted from an Agilent Eclipse Plus C18 2.1 × 150 mm 3.5 μm column (Agilent Technologies). The gradient was run from 2 to 90% solvent B (10 mM NH4HCO3, pH 8.4 final concentration, 20/80 water/acetonitrile v/v) in 30 min at a flow rate of 200 μL/min. Twelve fractions were made; every 30 s a fraction was collected in a vial, and the eluate of the next 30 s was collected in the next vial and so on until it loops back to the first vial (5 loops of 6 min each). Afterward, the samples were lyophilized.
2.2.07 (www.matrixscience.com) for protein identification. Mascot searches were with 10 ppm and 0.02 Da deviation for precursor and fragment mass, respectively. Enzyme specificity was set to trypsin. Up to two missed cleavages were allowed. Methionine oxidation and acetyl on protein N-terminus were set as variable modifications. Carbamidomethyl on Cys and TMTpro on Lys and N-terminus were set as fixed modifications. Protein FDR of 1% was set. Normalization was on total peptide amount. The values for each TMT channel were normalized to the average of the values for the DMSO samples for the same peptide, and these values were named FC. The log2 FC values of all replicates for the same master protein were averaged to give the “Average log2 FC”. A one-sample t test was performed against the null hypothesis of log2 FC = 0, and the resulting −log10p values were reported for each protein. The volcano plot was plotted using GraphPad Prism v.9.01.

In the case of `N#CN1CC[C@@H](C(=O)Nc2nc3c(s2)CN(C(=O)c2cc(-n4ccnn4)ccc2F)CC3)C1` [Compound 84, (R)-1-Cyano-N-(5-(2-fluoro-5-(1H-1,2,3-triazol-1-yl)benzoyl)-4,5,6,7-tetrahydrothiazolo[5,4-c]pyridin-2-yl)pyrrolidine-3-carboxamide], in data set [1], the cytotoxicity entry is listed as “did not show any cytotoxicity”. Moreover, the “DOP1B protein level (total proteome profiling)” value in data set [2] is on record as “downregulated”.

The values above are taken from PMC11129182, “Development of Inhibitors, Probes, and PROTAC Provides a Complete Toolbox to Study PARK7 in the Living Cell” (Journal of Medicinal Chemistry, 2024).
